Laboratory results taken from article PMC12560828, “Chemical structure drives developmental toxicity of alkyl-substituted naphthalenes in zebrafish” (Environment international, 2025).
Several values for one entry are separate records, joined by “and”; a condition that tells them apart may be missing. Identical values can stand only once.

What was measured:
[1] = tested on: zebrafish embryos; test: Body burden measurement (GC-MS/MS) and concentration uptake ratio, vial exposure; assay type: in vivo, Danio rerio; details: 20 μM exposure; for measured concentration in embryo extract: 32 pooled embryos, 0.5 mL extract, single replicates
Procedure: Body burden was measured for exposure to five chemicals at two timepoints: 24 and 48 hpf. […] The exposure concentration was chosen as it was the maximum possible concentration that ensured enough viable animals for collection at 48 hpf and allowed direct comparison of chemical uptake at the same exposure concentration.
Chemicals were exposed at 20 μM following the exposure procedure detailed in section 1.3, 24 vials per chemical. At 24 hpf, embryos were pooled in groups of 32 embryos (combining embryos from 4 vials) into 1.5 mL polypropylene RINO-safe lock tubes (n = 3 per chemical treatment, n = 3 per control). Tubes were briefly placed on ice to reduce embryo movement (<1 min); the remaining medium was removed; the tube was then flash frozen in liquid nitrogen and stored at −20 °C until extraction. Embryos in the remaining vials were plated as previously described in section 1.3 until collection at 48 hpf following the same procedure as 24 hpf collections (n = 3 per chemical treatment, n = 1 control).
Tissue extraction was performed as previously reported ([Rude et al., 2025]). Each sample was spiked with 25 μL internal standard in ethyl acetate and 100 μL of 1 mm glass beads (Next Advance, Troy, NY United States) were added to the RINO-safe lock tubes containing thawed tissue samples and left on ice for 10 min 250 mg of Na2SO4 and 200 μL of ethyl acetate were added to each tube and vortexed. Tubes were homogenized at speed 8 for 6 min in a Bullet Blender (Next Advance, Troy, NY, United States). 300 μL of ethyl acetate was added to each tube and the homogenization step was repeated until no pieces of non-homogenized fish tissue remained. Samples were then centrifuged for 10 min at 4 °C, 1600g. Sample supernatant (0.5 mL) was collected into amber vials and stored at 4 °C until chemical analysis.
Samples were analyzed for quantitation and identification of 161 PAHs. The method was performed with an Agilent 7890 gas chromatograph (GC), with a 7000C triple quadrupole mass spectrometer (MS/MS) using an Agilent J&W PAH select (30 m × 250 μm × 0.15 μm GC column). Calibration for each analyte utilized at least a 4-point (range: 4–7, median 6 points, n = 161) curve with R^2 ≥ 0.99. Specific instrument conditions were modified from [Anderson et al. (2015)] and are detailed in Table S3. GC–MS/MS data was analyzed using MassHunter Quantitative Analysis v.B.06.00 SP1 build 6.0.388.1 software (Agilent Corp. Wilmington,DE) ([Anderson et al., 2015]). Dynamic muti-reaction monitoring mode was used during analyses, and all PAHs were identified using analytical standards obtained from multiple sources (Table S1). Collison energies were optimized for each individual unsubstituted PAH, alkylation series (C1, C2, etc.), and when possible, specific alkylation group (i.e. methyl, ethyl, etc.).
Body burden concentrations based on average embryo wet weight at each timepoint were determined by the equation below. Total measured chemical was calculated from ng/mL concentrations times sample volume (0.5 mL). Bodyburdennmol/mgbw=total measured chemicalnmol/number of fish32×average body weightmg
Average body weights at 24 hpf and 48 hpf were assumed to be 0.31 mg and 0.26 mg, respectively as determined previously ([Rericha et al., 2024]). Statistical analysis to compare time points within chemicals was performed using a two-sided Student’s t-test (p-value ≤ 0.05). An ANOVA with a follow-up Dunn’s test was used to compare body burden between chemicals at 24 hpf (p-value ≤ 0.05). Body burden concentrations at 24 hpf were compared to the estimated percent effect of each measured chemical at the exposure concentration used for body burden analysis (20 μM). These estimates were made using the fitted concentration-response curves previously described in section 2.3.2.2.
Concentration uptake ratios between vial exposures and 96-well plate exposures were compared using a two-sided Student’s t-test, p-values ≤ 0.05 were considered significant. […]

[2] = tested on: zebrafish embryos, gene expression at 48 hpf; test: Targeted transcriptomics (TempO-Seq S1500+ zebrafish panel), differential expression; assay type: in vivo, Danio rerio; details: 20 μM
Procedure: Targeted transcriptomics were performed using the Biospyder™ TempO-Seq™ 96-well plate platform. This platform used detector oligos for a gene set of 3112 probes selected through data driven approaches and expert curation ([Balik-Meisner et al., 2019]). The targeted transcriptomics approach was selected to maximize the number of chemicals that could be included in the analysis while managing cost and data analysis requirements. Targeted transcriptomics were limited to 96 samples, three chemicals without morphological effects were excluded from the analysis to ensure n = 4 per chemical and n = 6 controls, excluded chemicals are indicated in SI-T3.
A single exposure concentration of 20 μM was chosen as the maximum possible concentration to elicit a biological response that also ensured enough viable animals for RNA collection for every chemical. The same concentration per chemical was chosen as opposed to a phenotypically anchored concentration due to variability in 48 hpf survival across chemicals at the same 120 hpf percent effect and to allow for a direct comparison of chemical potency and transcriptomic response. 48 hpf was chosen to ensure the measurement of transcriptomic responses prior to the emergence of observable phenotypic effects. This timepoint has been used extensively and enhanced the ability to compare our results across datasets. Exposure was conducted over two days, chemicals were split into day groups by numerical order of randomly generated internal labels, 11 chemicals and control each day, n = 48 embryos across six vials per treatment. Exposure was conducted as previously described in section 2.3. At 48 hpf embryos were collected for RNA extraction. Embryos from two exposure vials were kept for morphological effect assessments which were as expected based on screening results. From the remaining wells, six phenotypically normal embryos were collected and pooled in their vial groups into 1.5 mL Eppendorf tubes, placed on ice (~30 sec), excess medium was removed, placed back on ice (~30 sec), and 200 μL RNA shield was added. […] of n = 6 pooled embryos were collected from each treatment.
RNA was extracted from exposure groups on day one and day two. 100 μL of lysis buffer was added to each tube containing pooled embryo samples and 200 μL of RNA shield, the full contents of the tube were then transferred to the homogenization plate (2 mL deep 96-well plate pre-filled with 400 μL 1 mm zirconium beads and 500 μL of lysis buffer). The plate was homogenized for 1.5 min using the Mini-BeadBeater 96 (BioSpec Products, Bartlesville, OK, United States) and centrifuged for five min at 3000 rcf. 550 μL of the supernatant was distributed over two plates, each pre-filled with 275 μL of ethanol. RNA extraction was performed using the KingFisher Apex System (ThermoFisher Scientific, Waltham, MA, United States) and Quick-RNA Magbead kit (Zymo Research Corporation, Irvine, CA, Untied States). Briefly, this automated process uses Mag beads to collect RNA from the sample, after a series of washes and treatment with DNase the RNA is eluted in 50 μL of ultra-pure water. RNA quality was assessed using the 4150 TapeStation System (Agilent, Santa Clara, CA, United States). All samples used had RNA integrity number (RIN) scores >9.8. RNA concentration was determined using Quant-iT RNA Reagent and assay kit and Varioskan ALF multi-mode plate reader (ThermoFisher Scientific, Waltham, MA, United States) in duplicate, samples with high variability (coefficient of variance (CV) > 10) between reads were repeated in triplicate. The average of the quantification reads was used for RNA concentration normalization. […] All 94 samples were normalized using ultra-pure water to the lowest concentration sample − 14.9 ng/μL. […]

Compound	measured concentration in embryo extract ([1]; 24 hpf)	measured concentration in embryo extract ([1]; 48 hpf)	nt5dc2 expression ([2]; result in words)	other results
Cc1cccc2c(C)cccc12 [1,5-dimethylnaphthalene]	28000 ng/mL and 23900 ng/mL	9300 ng/mL and 7200 ng/mL		
Cc1ccc2cccc(C)c2c1 [1,7-dimethylnaphthalene]	33000 ng/mL and 33300 ng/mL	11600 ng/mL and 10100 ng/mL	decreased expression	number of differentially expressed genes (DEGs) ([2]; p-value ≤ 0.05 and log2FC ≥ |1|, result in words): substantially more DEGs than the rest of the chemicals tested; logFC CCN1 ([2]; vs global control (SI-T13)): -1.157; logFC FGFBP2B ([2]; vs global control (SI-T13)): -1.676; logFC MFAP2 ([2]; vs global control (SI-T13)): -0.751; logFC PDE6GB ([2]; vs global control (SI-T13)): -0.7875; logFC PLOD1A ([2]; vs global control (SI-T13)): -3.2359; body burden concentration ([1]; 24 hpf): highest concentration
Cc1cc(C)c2c(C)cccc2c1 [2,4,5-trimethylnaphthalene]	9270 ng/mL and 6860 ng/mL	4950 ng/mL and 4550 ng/mL and 2080 ng/mL		percent reduction in body burden between 24 and 48 hpf [1]: 46%
Cc1ccc2ccc(C)cc2c1 [2,7-dimethylnaphthalene]	19900 ng/mL	8080 ng/mL and 7630 ng/mL	decreased expression	
CCc1ccc2ccccc2c1 [2-ethylnaphthalene]			decreased expression	
